Structures can show the parent of a compound that is named as a salt.
Experiments:
[1] = tested on: patients with urinary disturbance associated with benign prostatic hyperplasia; experiment: Placebo-control parallel groups-comparing double blind clinical trial, I-PSS changes from pre-administration; assay type: in vivo, human; conditions: for I-PSS (irritative symptom) Changes / I-PSS (obstructive symptom) Changes / Total I-PSS Changes: oral, 12 weeks
Description: Using patients with urinary disturbance associated with benign prostatic hyperplasia as the subjects, the clinical effects of silodosin and tamsulosin hydrochloride were examined by a placebo-control parallel groups-comparing double blind trial, using changes in the total I-PSS (International Prostate Symptom Score) from pre-administration as the primary endpoint. The I-PSS consists of 3 items of irritative symptoms representing the symptoms at the time of storing (Nocturia, Urgency and Urination within 2 hours) and 4 items of obstructive symptoms representing the symptoms at the time of voiding (Sensation of residual urine, Intermittency of urinary stream, Power of urinary stream and Straining during urination), prepared for use in the judgment of various therapeutic effects on the dysuria associated with benign prostatic hyperplasia, but this is not specific to prostatic hyperplasia and can also be used for the judgment of therapeutic effects on female dysuria and the like (Non-patent Reference 1).
Effects of silodosin (4 mg per once, twice a day) and tamsulosin hydrochloride (0.2 mg per once, once a day) on the storage disorder were examined by the following method.
Patients to be tested: 455 patients with dysuria associated with benign prostatic hyperplasia
Administration method: oral administration for 12 weeks
Primary endpoints: total score of I-PSS, I-PSS irritative symptom score and I-PSS obstructive symptom score
Analysis method: all of the finally evaluated cases were stratified into groups of patients having a total score of less than 6 and that of 6 or more regarding the “Urination within 2 hours” and “Urgency” of I-PSS, and average values of respective changes in the total score of I-PSS, I-PSS irritative symptom score and I-PSS obstructive symptom score before and after the administration were calculated for each group.
Administration groups: silodosin group (116 cases having a pre-administration score of less than 6, and 58 cases having that of 6 or more), tamsulosin group (135 cases having a pre-administration score of less than 6, and 57 cases having that of 6 or more), a placebo group (61 cases having a pre-administration score of less than 6, and 28 cases having that of 6 or more)
Not at all: 0 point; Less than 1 time in 5: 1 point; Less than 1 time in 2: 2 points; About 1 time in 2: 3 points; More than 1 time in 2: 4 points; Almost always: 5 points.
None: 0 point; 1 time: 1 point; 2 times: 2 points; 3 times: 3 points; 4 times: 4 points; 5 times or more: 5 points.

α1B-AR subtype = molecular target: T1, α1B-AR subtype (Homo sapiens, UniProt P35368); conditions: Patent Reference 3 and Non-patent Reference 5; cited from earlier work
T1 sequence (P35368 1-520): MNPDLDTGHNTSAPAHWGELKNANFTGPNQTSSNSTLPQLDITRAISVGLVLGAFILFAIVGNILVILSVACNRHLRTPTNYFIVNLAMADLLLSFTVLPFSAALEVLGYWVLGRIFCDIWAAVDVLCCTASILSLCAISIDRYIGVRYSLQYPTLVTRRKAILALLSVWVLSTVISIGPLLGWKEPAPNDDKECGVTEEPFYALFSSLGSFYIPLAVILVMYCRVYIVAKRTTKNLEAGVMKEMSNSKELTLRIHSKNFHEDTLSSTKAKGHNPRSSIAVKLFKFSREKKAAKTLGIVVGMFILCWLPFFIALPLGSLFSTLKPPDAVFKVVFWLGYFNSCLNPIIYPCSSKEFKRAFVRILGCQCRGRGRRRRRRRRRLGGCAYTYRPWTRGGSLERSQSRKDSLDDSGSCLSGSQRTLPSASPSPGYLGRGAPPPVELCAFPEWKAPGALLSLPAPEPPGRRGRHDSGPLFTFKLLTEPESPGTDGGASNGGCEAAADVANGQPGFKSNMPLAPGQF

α1A-AR subtype = molecular target: T2, α1A-AR subtype (Homo sapiens, UniProt P35348); conditions: Patent Reference 3 and Non-patent Reference 5; cited from earlier work
T2 sequence (P35348 1-466): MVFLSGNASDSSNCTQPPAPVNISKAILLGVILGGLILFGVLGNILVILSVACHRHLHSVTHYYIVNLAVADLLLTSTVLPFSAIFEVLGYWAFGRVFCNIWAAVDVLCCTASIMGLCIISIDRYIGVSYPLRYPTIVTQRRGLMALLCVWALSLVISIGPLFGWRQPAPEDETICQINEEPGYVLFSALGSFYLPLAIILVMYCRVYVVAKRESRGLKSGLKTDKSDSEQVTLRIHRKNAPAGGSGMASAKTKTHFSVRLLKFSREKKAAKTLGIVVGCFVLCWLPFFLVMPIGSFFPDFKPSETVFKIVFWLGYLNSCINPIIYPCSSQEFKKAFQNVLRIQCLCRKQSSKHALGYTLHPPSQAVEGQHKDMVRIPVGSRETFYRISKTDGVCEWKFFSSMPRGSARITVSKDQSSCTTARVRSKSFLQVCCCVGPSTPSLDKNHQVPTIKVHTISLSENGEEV

α1D-AR subtype = molecular target: T3, α1D-AR subtype (Homo sapiens, UniProt P25100); conditions: Patent Reference 3 and Non-patent Reference 5; cited from earlier work
T3 sequence (P25100 1-572): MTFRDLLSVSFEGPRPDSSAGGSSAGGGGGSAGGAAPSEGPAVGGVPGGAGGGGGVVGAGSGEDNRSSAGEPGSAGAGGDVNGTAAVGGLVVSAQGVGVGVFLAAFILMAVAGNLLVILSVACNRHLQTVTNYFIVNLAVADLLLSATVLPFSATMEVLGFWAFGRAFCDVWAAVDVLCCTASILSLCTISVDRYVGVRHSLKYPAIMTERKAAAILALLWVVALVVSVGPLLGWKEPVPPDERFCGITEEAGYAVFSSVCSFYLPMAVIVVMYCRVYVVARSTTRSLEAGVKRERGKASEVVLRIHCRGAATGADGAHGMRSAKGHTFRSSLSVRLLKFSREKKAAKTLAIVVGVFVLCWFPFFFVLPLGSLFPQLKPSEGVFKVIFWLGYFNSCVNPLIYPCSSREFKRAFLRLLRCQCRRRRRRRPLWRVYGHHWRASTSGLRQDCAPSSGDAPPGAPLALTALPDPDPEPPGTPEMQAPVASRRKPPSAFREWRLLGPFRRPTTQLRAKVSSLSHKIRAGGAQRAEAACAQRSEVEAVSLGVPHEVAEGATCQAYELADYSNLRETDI

[2] = Overall (all patients), average change
[3] = patients with pre-administration total score of "Urination within 2 hours" and "Urgency" less than 6, average change before/after administration
[4] = pre-administration score 6 or more, average change
[5] = pre-administration score less than 6, average change

| SMILES | I-PSS (irritative symptom) Changes [1, 2] | I-PSS (obstructive symptom) Changes [1, 2] | Total I-PSS Changes [1, 2] | Effect on I-PSS irritative symptom score in patients showing storage disorders (in words) ([1]; particularly patients with 6 or more total score of "Urination within 2 hours" and "Urgency" at pre-administration) | Total I-PSS Changes [1, 3] | I-PSS (irritative symptom) Changes [1, 4] | I-PSS (obstructive symptom) Changes [1, 4] | Total I-PSS Changes [1, 4] | I-PSS (irritative symptom) Changes [1, 5] | I-PSS (obstructive symptom) Changes [1, 5] | Action upon α1B-AR subtype (in words) (α1B-AR subtype) | Action upon α1A-AR subtype (in words) (α1A-AR subtype) | Inverse agonist activity (in words) (α1A-AR subtype) | Action upon α1D-AR subtype (in words) (α1D-AR subtype) |
| --- | --- | --- | --- | --- | --- | --- | --- | --- | --- | --- | --- | --- | --- | --- |
| C[C@H](Cc1cc2c(c(C(N)=O)c1)N(CCCO)CC2)NCCOc1ccccc1OCC(F)(F)F [Silodosin, (−)-1-(3-hydroxypropyl)-5-((2R)-2-{[2-({2-[(2,2,2-trifluoroethyl)-oxy]phenyl}oxy)ethyl]amino}propyl)2,3-dihydro-1H-indole-7-carboxamide] | −2.5 | −5.8 | −8.3 | has the effect to improve I-PSS irritative symptom score | −6.8 | −4.3 | −7.1 | −11.3 | −1.6 | −5.2 | hardly acts | selectively acts | does not show inverse agonist activity | hardly acts |
| CCOc1ccccc1OCCN[C@H](C)Cc1ccc(OC)c(S(N)(=O)=O)c1 [Tamsulosin, tamsulosin hydrochloride, reference compound] | −2.1 | −4.8 | −6.8 | – | −5.9 | −3.9 | −5.2 | −9.1 | −1.3 | −4.6 | – | – | – | – |

Reference: US20100137399A1, “PREVENTIVE AND/OR THERAPEUTIC AGENT FOR URINE COLLECTION DISORDER ACCOMPANYING LOWER URINARY TRACT OBSTRUCTION” (KISSEI PHARMACEUTICAL CO., LTD., priority 2004, published 2010)
